Reference: US20110143948A1, “MOLECULAR SIGNATURES AND BIOMARKERS ASSOCIATED WITH MELANOMA AND METHODS OF USE THEREOF” (priority 2008, published 2011)

Tested on: ncRNAs (SEQ ID NO 28-89)
Experiment: ncRNA arrays of melanocytes, keratinocytes, normal skin, melanoma cell lines and patient samples
Parameters: species or system human
Settings: for ncRNA array expression, patient 2: melanoma patient 2 sample compared to normal skin; for ncRNA array expression, patient 3: melanoma patient 3 sample compared to normal skin; for ncRNA array expression, patient 4: melanoma patient 4 sample compared to normal skin; for ncRNA array expression, patient 5: melanoma patient 5 sample compared to normal skin; for ncRNA array expression, patient 6: melanoma patient 6 sample compared to normal skin; for ncRNA array expression, patient 7: melanoma patient 7 sample compared to normal skin; for ncRNA array expression, patient 8: melanoma patient 8 sample compared to normal skin; for ncRNA array expression, patient 9: melanoma patient 9 sample compared to normal skin; for ncRNA array expression, patient 10: melanoma patient 10 sample compared to normal skin; for ncRNA array expression, patient 19: melanoma patient 19 sample compared to normal skin; for ncRNA array expression, patient 20: melanoma patient 20 sample compared to normal skin; for ncRNA array expression, patient 21: melanoma patient 21 sample compared to normal skin; for ncRNA array expression, patient 22: melanoma patient 22 sample compared to normal skin; for ncRNA array expression, patient 23: melanoma patient 23 sample compared to normal skin; for ncRNA array expression, patient 24: melanoma patient 24 sample compared to normal skin; for ncRNA array expression, patient 25: melanoma patient 25 sample compared to normal skin; for ncRNA array expression, patient 26: melanoma patient 26 sample compared to normal skin; for ncRNA array expression, patient 27: melanoma patient 27 sample compared to normal skin; for ncRNA array expression, patient 28: melanoma patient 28 sample compared to normal skin; for ncRNA array expression, patient 29: melanoma patient 29 sample compared to normal skin; for ncRNA array expression, patient 30: melanoma patient 30 sample compared to normal skin
Method: An ncRNA array platform that contains over 10,000 putative (>200 nt) ncRNAs including most of the known ncRNAs in mouse and human was conducted to evaluate ncRNAs within melanoma. Lack of coding potential was estimated by an algorithm that scores various characteristics of protein-coding genes, including open reading frame length, synonymous/non-synonymous base substitution rates and similarity to known proteins. These arrays provide the first generation of tools designed to analyze the dynamic expression of a large subset of ncRNAs in human and mouse and to identify candidate genes for more detailed functional analysis. In addition to the ncRNA content, probes targeting mRNA content from RefSeq are also included, allowing discovery of coordinated expression with associated protein-coding genes. The result of these assays is a list of ncRNA genes (i.e. SEQ ID NO 28-89) and maps of their sequence boundaries. We have profiled total RNA isolated from melanocytes, keratinocytes, normal human skin, melanoma cell lines and melanoma patient samples to identify differentially expressed ncRNAs in cell lines and tissues. ncRNAs expression in all tested samples were compared to either melanocytes or normal skin. We have identified a group of ncRNAs that are specific for (a) melanocytes (b) Keratinocytes (c) Melanoma cell lines (d) Melanoma patients. […] Probe DNA sequences for this array include: AF086032 (SEQ ID NO 107) […] BC071821 (SEQ ID NO 108) […] C AK130193 (SEQ ID NO 109) […] AL109719 (SEQ ID NO 110) […] AF085888 (SEQ ID NO 111) […] T BC033879 (SEQ ID NO 112) […] AA AK024556 (SEQ ID NO 113) […] Probe nomenclature is standard genebank IDs given by NCBI and other organizations.
Keratinocytes specific signatures were subtracted and resultant ncRNAs were validated by qRT-PCR and Northern blots. Results point out the presence of a group of melanoma specific ncRNAs (i.e. SEQ ID NO 28-89).

Substance	ncRNA array expression, patient 2	ncRNA array expression, patient 3	ncRNA array expression, patient 4	ncRNA array expression, patient 5	ncRNA array expression, patient 6	ncRNA array expression, patient 7	ncRNA array expression, patient 8	ncRNA array expression, patient 9	ncRNA array expression, patient 10	ncRNA array expression, patient 19	ncRNA array expression, patient 20	ncRNA array expression, patient 21	ncRNA array expression, patient 22	ncRNA array expression, patient 23	ncRNA array expression, patient 24	ncRNA array expression, patient 25	ncRNA array expression, patient 26	ncRNA array expression, patient 27	ncRNA array expression, patient 28	ncRNA array expression, patient 29	further results
SEQ ID NO 71 (AAAATTCCAAGAGGGCCTTTTCGAATAGACGCATGAACGGTGTTTGTGTCTGGATCGTCC; listed as DNA, chemistry not given here; listed as Homo sapiens)	0.7413	0.6126	1.336	2.628	1.002	1.936	0.7221	0.1592	1.787	3.439	1.577	1.245	1.105	0.258	2.527	2.034	1.058	1.849	0.926	2.387	ncRNA array expression, patient 30: −2.464
SEQ ID NO 49 (CGATGGCTTGTCATTGTCCCCTGTCCTGGAACAATAAAGCAAGTGCCTTGTGGTCTCACT; listed as DNA, chemistry not given here; listed as Homo sapiens)	−3.131	−1.901	−2.3226	−1.9036	0.7986	−1.477	−1.974	−2.214	−4.429	−2.094	−2.123	−2.207	−2.118	−1.787	−1.642	−2.472	−3.037	−2.447	−2.621	−2.39	ncRNA array expression, patient 30: −0.9259
SEQ ID NO 56 (AAAAAATGAGGCAATCTCATCCCGAAACTATTTAAAACTACTCTCCTCTCTCTTGATAAA; listed as DNA, chemistry not given here; listed as Homo sapiens)	−2.014	−1.535	−1.64	−1.4872	−1.129	−1.282	−1.314	−1.818	−2.922	−1.228	−1.698	−1.986	−1.277	−1.277	−1.273	−2.407	−2.501	−1.97	−1.952	−1.912	ncRNA array expression, patient 30: −0.5599
SEQ ID NO 33 (TATTGAATGTACACAAGTAATGATGGAGTTTGATTATATGGTTCATTTTCATTTATCCTA; DNA, backbone and methylation of C not given here; listed as Homo sapiens)	0.6575	0.8123	3.512	0.6998	1.768	2.379	2.278	0.3136	1.984	1.068	1.404	1.613	0.8185	−0.4072	3.016	1.628	2.999	3.593	2.24	2.111	ncRNA array expression, patient 30: −0.2823
SEQ ID NO 50 (GTTATTATAACCAATGCAGACTTTAAAATCCCACCTGGACATCGGGTGAGAGGAGGAGGG; listed as DNA, chemistry not given here; listed as Homo sapiens)	−2.415	−1.962	−2.102	−1.782	−1.159	−1.978	−1.68	−2.03	−1.537	−0.5347	−1.776	−1.854	−1.427	−0.1575	−1.434	−1.804	−1.952	−1.707	−1.738	−2.317	ncRNA array expression, patient 30: −0.3312
SEQ ID NO 70 (AGTTATAGAGGAGGCTCAGGAGGATCTGGGGAAACGGGACCAGAGGGTAAGATGGGTTAT; listed as DNA, chemistry not given here; listed as Homo sapiens)	−1.553	−1.673	−1.217	−1.521	−1.483	−1.751	−2.182	−1.366	−0.6931	−1.792	−1.615	−1.1	−1.351	−0.7876	−1.593	−1.473	−1.495	−1.848	−1.549	−1.625	ncRNA array expression, patient 30: −0.6666
SEQ ID NO 78 (ATGGAAAGGCCAGGGGAGGGTGGAGCTCAGGAGTGGAAGCACAGGGACTAAGGCCTGAGC; listed as DNA, chemistry not given here; listed as Homo sapiens)	−3.7	−3.634	−3.593	−3.41	−1.8308	−3.861	−3.607	−3.9856	−3.496	−2.807	−3.82	−3.781	−1.089	−1.0414	−3.419	−3.518	−3.351	−3.653	−3.215	−3.656	ncRNA array expression, patient 30: 1.597
